Counter-ions that a name gives are not always drawn.
Tests used:
[1] = test system: E. faecalis; settings: cited from earlier work; as to Growth, Predicted: key: + indicates growth; − indicates no growth
[2] = test system: S. aureus; settings: cited from earlier work; also: key: + indicates growth; − indicates no growth
[3] = test system: E. coli (UT189); settings: cited from earlier work; also: key: + indicates growth; − indicates no growth
[4] = test system: E. coli (UT189); assay: Growth in sugars, microfluidic device (phenol red colour change); as to Growth, Device: key: + indicates growth; − indicates no growth; type: cell-based; settings: for Growth, Device: E. coli (UT189), sugar 1% (w/v), LB with 0.05% phenol red pH 8.2; for growth in device chamber: E. coli (UT189)-1
Description: (§1) Self-loading microfluidic devices were prepared as described above. Reaction wells were filled with different sugar solutions including (1) cellbiose, (2) glycerol, (3) lactose, (4) mannitol, (5) mannose, (6) raffinose, (7) sucrose, (8) trehalose, (9) xylose, and (10) control (no sugar) (FIG. 28). The final concentration of the sugar in each chamber was 1% (w/v). After loading the sugar solutions, the liquid was evaporated as described above. The devices were then assembled and degassed by vacuum.
(§2) Cultures of A. baumannii-1, A. baumannii-2, K. pneumoniea-1, K. pneumoniea-2, S. aureus-1, S. aureus-2, E. coli (UT189), E. faecalis-1, E. faecalis-2, V. cholerae-1, and (11) V. cholerae-2 were grown for 15 hours in LB (pH 7.0). The cultures were then diluted at a ratio of 1:50 in LB containing 0.05% (w/v) phenol red (pH8.2) and added to individual devices using degas-driven flow. Growth of bacteria results in a pH change of the LB that causes a color change from red (illustrated in FIGS. 29 and 30 as filled chambers) to yellow (illustrated in FIGS. 29 and 30 as hatched chambers).

[5] = test system: E. faecalis; assay: as above; type: cell-based; settings: E. faecalis-1 and E. faecalis-2; by 18 hours of incubation
Description: as §1, §2

[6] = test system: K. pneumoniae; assay: as above; type: cell-based; settings: for Growth, Device: K. pneumoniae, sugar 1% (w/v), LB with 0.05% phenol red pH 8.2; for growth in device chamber: K. pneumoniea-1 and K. pneumoniea-2, by 4 hours of incubation
Description: as §1, §2

[7] = test system: A. baumannii; assay: as above; type: cell-based; settings: for Growth, Device: A. baumannii, sugar 1% (w/v), LB with 0.05% phenol red pH 8.2
Description: as §1, §2

[8] = test system: E. coli (UT189); assay: Growth in sugars, culture tubes; type: cell-based
Source text: (§3) Results observed in microfluidic devices are illustrated in FIGS. 29A-F and 30A-E. The predicted growth as compared to devices and culture tubes are summarized in Table 2.

[9] = test system: E. faecalis; assay: Growth in sugars, culture tubes; type: cell-based
Source text: as §3

[10] = test system: K. pneumoniae; assay: Growth in sugars, culture tubes; type: cell-based
Source text: as §3

[11] = test system: A. baumannii; assay: Growth in sugars, culture tubes; type: cell-based; settings: for Growth, Tube: A. baumannii, culture tubes
Source text: as §3

[12] = test system: S. aureus; assay: Growth in sugars, microfluidic device (phenol red colour change); as to Growth, Device: key: + indicates growth; − indicates no growth; type: cell-based; settings: for Growth, Device: S. aureus, sugar 1% (w/v), LB with 0.05% phenol red pH 8.2
Description: as §1, §2

[13] = test system: S. aureus; assay: Growth in sugars, culture tubes; type: cell-based; settings: for Growth, Tube: culture tubes; as to Growth, Tube: key: + indicates growth; − indicates no growth
Source text: as §3

[14] = test system: kanamycin-resistant strain of E. coli MG1655; assay: Susceptibility to multiple antibiotics on a single microfluidic device using breakpoint values; type: cell-based; settings: 18 h; vancomycin 2, 4, 8 μg/mL, tetracycline 0.5, 1, 2 μg/mL, kanamycin 1, 2, 4 μg/mL
Source text: In this Example, a single microfluidic device was used to simultaneously test the susceptibility of the kanamycin-resistant strain of E. coli MG1655 described above to multiple antibiotics using breakpoint values.
In clinical microbiology, a strain is classified as susceptible, intermediate, or resistant based on the relationship of the MIC of an antibiotic to specified ‘breakpoint’ values. Breakpoint values are set by organizations, such as the CLSI, and take into consideration MIC values of wild type strains, pharmacokinetic/pharmacodynamic data, and clinical outcomes. Breakpoint values are available for specific clinically relevant pairings of bacterial species and antibiotics and enable clinical decisions without knowing the exact MIC value.
Specifically, vancomycin, tetracycline, and kanamycin were added to the reaction wells of a single device. The most common breakpoints for vancomycin (susceptible <2 μg/mL, resistant >2 μg/mL), tetracycline (susceptible <1 μg/mL, intermediate=2 μg/mL, resistant >2 μg/mL), and gentamicin (susceptible <2 μg/mL, intermediate=4 μg/mL, resistant >4 μg/mL) were used. As there are no published breakpoints available for kanamycin, the breakpoint values for the structurally related aminoglycoside, gentamicin, against aerobic bacteria was used. A microfluidic device with ten chambers was prepared as described in Example 1 above. The ten chambers were divided into three chambers for each antibiotic vancomycin (2, 4, 8 μg/mL), tetracycline (0.5, 1, 2 μg/mL), and kanamycin (1, 2, 4 μg/mL) and one chamber for a control containing no antibiotic.

[15] = test system: P. mirabilis (HI4320); assay: Off-chip MIC, broth dilution method according to CLSI protocols; type: cell-based; design: unit not given beside the values; settings: CAMHB, 20 h at 35° C.
Description: (§4) Off-chip MIC assays using the broth dilution method according to CLSI protocols were performed as control experiments and to validate experimental data obtained with the microfluidic device.

[16] = test system: P. mirabilis (HI4320); assay: MIC measurement using the self-loading microfluidic device; type: cell-based; settings: 18 h at 35° C., CAMBH pH 8.2 with 1% glucose and 0.05% phenol red, dilution series 0.5-1024 μg/mL
Description: (§5) Minor adjustments were made to procedures mimicking the CLSI guidelines to perform MIC measurements using microfluidic devices prepared as described above. Antibiotic stock solutions (10 mg/mL in sterile deionized water) of vancomycin hydrochloride, tetracycline hydrochloride, and kanamycin monosulfate were used to prepare a 1:10 dilution series. Appropriate amounts of these dilutions were added to sterile deionized water to create a two-fold dilution series that varied from 0.5-1024 μg/mL. Antibiotic solution (2.94 μL) was added to each chamber with the lowest antibiotic concentration located closest to the inlet port and the highest antibiotic concentration located in the chamber closest to the vacuum well. After antibiotic loading, the device was placed in a laminar flow hood to evaporate the liquid. After the liquid was evaporated, the device was assembled by placing the layer of PDMS forming the channel section over the chamber layer containing the dried antibiotic such that the channels connected the chambers. The assembled device was then placed under vacuum.
(§6) The standardized culture was then diluted 1:200 in CAMBH media, pH 8.2 supplemented with 1% glucose and 0.05% phenol red to provide a colorimetric change upon growth. The device was removed from the vacuum and 20 μL of cell suspension was pipetted onto the inlet port. […] Bacterial growth changed the pH of the liquid nutrient media containing the indicator phenol red, and produced a visible color change that was used to identify the cell growth in chambers.

[17] = test system: K. pneumoniae; assay: as above; type: cell-based; settings: 18 h at 35° C., CAMBH pH 8.2 with 1% glucose and 0.05% phenol red, dilution series 0.5-1024 μg/mL
Description: as §5, §6

[18] = test system: K. pneumoniae; assay: Off-chip MIC, broth dilution method according to CLSI protocols; type: cell-based; settings: CAMHB, 20 h at 35° C.
Description: as §4

[19] = S. aureus-1, by 8 hours of incubation
For Growth, Device in this document: key: + indicates growth; − indicates no growth.

| SMILES | Growth, Predicted [1] | Growth, Predicted [2] | Growth, Predicted [3] | Growth, Device [4] | growth in device chamber [5] | Growth, Device [6] | Growth, Device [7] | Growth, Tube [8] | Growth, Tube [9] | Growth, Tube [10] | Growth, Tube [11] | growth in device chamber [12, 19] | Growth, Device [12] | growth in device chamber [6] | Growth, Tube [13] | growth in device chamber [4] | other results |
| --- | --- | --- | --- | --- | --- | --- | --- | --- | --- | --- | --- | --- | --- | --- | --- | --- | --- |
| OC[C@H]1O[C@@H](O[C@H]2[C@H](O)[C@@H](O)[C@@H](O)O[C@@H]2CO)[C@H](O)[C@@H](O)[C@@H]1O [Cellbiose, cellbiose] | + | − | − | − | grew | − | − | − | + | + | − |  |  |  |  |  |  |
| OCC(O)CO [Glycerol, glycerol] | + | + | + | − | grew | + | − | − | + | + | − | grew | + | grew | − |  | growth in culture tubes [13]: no growth was observed |
| OC[C@H]1O[C@@H](O[C@H]2[C@H](O)[C@@H](O)C(O)O[C@@H]2CO)[C@H](O)[C@@H](O)[C@H]1O (stereo partly drawn) [Lactose, lactose] | + | + | + | + | grew | − |  | + | + | − |  | growth was not observed | − |  | + | grew | growth in device chamber ([12]; S. aureus-2, by 18 hours of incubation): growth was not observed |
| OC[C@@H](O)[C@@H](O)[C@H](O)[C@H](O)CO [Mannitol, mannitol] | + | + | + | + | grew | + |  | + | + | + |  | grew | + | grew | + | grew |  |
| OC[C@H]1O[C@H](OC[C@H]2O[C@H](O[C@]3(CO)O[C@H](CO)[C@@H](O)[C@@H]3O)[C@H](O)[C@@H](O)[C@@H]2O)[C@H](O)[C@@H](O)[C@H]1O [Raffinose, raffinose] | − | − | − | − |  | + | − | − | − | + | − |  |  | grew |  |  |  |
| O=C[C@H](O)[C@@H](O)[C@H](O)CO [Xylose, xylose] | − | − | + | − |  | − | + | + | − | + | − |  |  |  |  | grew | growth in device chamber ([7]; A. baumannii-1 and A. baumannii-2, by 8 hours of incubation): grew; growth in culture tubes ([11]; A. baumannii-1 and A. baumannii-2): did not grow |
| CN[C@H](CC(C)C)C(=O)N[C@H]1C(=O)N[C@@H](CC(N)=O)C(=O)N[C@H]2C(=O)N[C@H]3C(=O)N[C@H](C(=O)N[C@H](C(=O)O)c4cc(O)cc(O)c4-c4cc3ccc4O)[C@H](O)c3ccc(c(Cl)c3)Oc3cc2cc(c3O[C@@H]2O[C@H](CO)[C@@H](O)[C@H](O)[C@H]2O[C@H]2C[C@](C)(N)[C@H](O)[C@H](C)O2)Oc2ccc(cc2Cl)[C@H]1O [vancomycin, vancomycin hydrochloride] |  |  |  |  |  |  |  |  |  |  |  |  |  |  |  |  | effect on growth of the strain [14]: did not have any effect; MIC, Broth [15]: >1024; MIC, Device [16]: >1024; MIC, Device [17]: >1024; MIC, Broth [18]: >1024 |

— patent US9687845B2, “Self-loading microfluidic device and methods of use” (Wisconsin Alumni Research Foundation, priority 2011, dated 2017)
